This is an account of results in patent US20230220021A1, “CYCLIC PEPTIDE INHIBITORS OF PSD-95 AND USES THEREOF” (University of Copenhagen, priority 2020, published 2023).

Test [1] addresses T1, PSD-95-PDZ2 (Homo sapiens, UniProt P78352).
T1 construct: 7xHis (N); made in house; host or cells: Escherichia coli B21 pLys (for the mutants, 'as previously described')
The test can be described thus: Fluorescence polarization (FP) competition assay against cyclic nNOS TAMRA probe. Particulars: for Relative Ki (Ki mut/Ki WT): FP inhibition constant normalized to WT value; for Ki: cyclic nNOS TAMRA probe, mean of triplicates, N.B. = not binding, read-out: Ki. The format is binding.

The target in test [2] is T2, PSD-95-PDZ2 (Homo sapiens, UniProt P78352, V178C).
T2 construct: screened with the TAMRA labelled PSD-95-PDZ2-V178C domain; 7xHis (N); made in house
Description: SPOT peptide array screening with TAMRA labelled PSD-95-PDZ2. The format is binding. Particulars: SPOT array, TAMRA labelled PSD-95-PDZ2-V178C, normalized to WT. The method, then:
SPOT peptide array synthesis. To generate the cyclic nNOSβ-hairpin arrays, we used the Intavis MultiPep spotter (Intavis Bioanalytical instruments). The membranes employed in this assay were SynthoPlan APEG CE (standard amino-modified acid stable sellulose membrane with a PEG-spacer), 10×15 cm with a loading of 400 nmol cm^−2. Solutions of 0.3 M Fmoc-AA-OH and 0.3 M Oxyma Pure were prepared in N-methyl-2-pyrrolidone (NMP). The activator solution consisted of 0.3 M DIC and 0.3 M of 2,4,6-trimethylpyridine (Collidine) in NMP. The capping solution consisted of a solution of 1 M acetic anhydride and 0.05 M of 4-dimethylaminopyridine (DMAP) in NMP. The deprotection solution consisted of 20% piperidine in NMP. AA couplings were performed 1 h,4 times. Deprotection of the Fmoc groups was performed 15min,2 times. Membrane washing between couplings or deprotections was performed with NMP and ethanol. Elongation of peptides in cellulose membrane was started by coupling first the Fmoc-PEG(9)-OH (Iris Biotech) and the subsequent mixture of Fmoc-Gly-OH (25%) and Boc-Gly-OH (75%) to lower the total loading of the membrane. Afterwards, the resin was capped with the capping solution and extensively washed and soaked in bromophenol blue (BPB) as a quality control to reveal the SPOTS with a functional amino group. Then, we coupled the quasi-orthogonal group Fmoc-Glu-PP, and carried out the rest of the synthesis until peptide completion. The cellulose bound linear peptides were finally treated with a solution of 95% DCM, 3% TIPS and 2% TFA 3 times, 20 min. to remove the quasi-orthogonal group. Afterwards, the membrane was washed 5 times with DCM and neutralized with 5% DIPEA in DCM. The membrane was then washed 5 more times with DCM, 5 times with NMP and cyclized with 0.3M PyAOP and 0.3M of DIPEA in DMF for 3 h or overnight. Finally, the membrane was dried with DCM and the side-chain protecting groups were cleaved with the standard deprotection cocktail (95% TFA, 2.5% H2O and 2.5% TIPS) or with reagent K [TFA 82.5%, phenol 5%, H2O 5%, thioanisole 5% and 1,2-ethanedithiol (EDT) 2.5%] for 3 h.
SPOT membrane screening. Membranes were incubated with PBS pH 7.2+0.5% bovine serum albumin (BSA) for 1 h. After the incubation period, the membrane was dried and scanned with an Amershan Typhoon scanner, at 400V, Cy3 wavelength (532 nm). A TIF file of the screening and a file with the blank values were generated using the Image Quant software. Afterwards, a solution of 50 nM of TAMRA labelled PSD-95-PDZ2 domain was prepared in PBS pH 7.2+0.5% BSA and was added to the membrane. The membrane was left incubating in a Polymax 1040 rocking table for 1 h protected from the light. Passed the incubation time, the excess of labelled protein was removed by washing the membrane 3 times with PBS+0.5% BSA. Finally, the membrane fluorescence values were measured with the Amershan Typhoon scanner at 400V, Cy3 wavelength (532 nm). Using the Image Quant software, the TIF image of the screening and a file with the fluorescence values of the peptides with the TAMRA labelled PSD-95-PDZ2 were generated. The blank was then subtracted from the fluorescence values of the peptides screened against the TAMRA labelled PSD-95-PDZ2.
A deep mutational scan was performed on the WT scaffold, exchanging each AA to the remaining 19 L-AAs. Each array contained three copies of the individual peptides as technical replicates. Additionally, three controls were included in the design: the cyclic nNOS β-hairpin WT control (positive control), a linear nNOS peptide (cyclization control) and a cyclic nNOS β-hairpin with a F111V substitution (negative control previously tested in FP competition assays). For array screening, a mutation in PSD-95-PDZ2 residue V178 (PSD-95-PDZ2-V178C) was introduced, which was subsequently labelled with TAMRA maleimide. […]

Where a SMILES comes first, the peptide text is derived from it. [ ]: non-standard residue; d: D form.

On to `CC[C@H](C)[C@@H]1NC(=O)[C@H]([C@@H](C)O)NC(=O)[C@H](CCCCN)NC(=O)[C@@H]2CCCN2C(=O)[C@H]([C@@H](C)O)NC(=O)CNC(=O)[C@H](CC(=O)O)NC(=O)CNC(=O)[C@H]([C@@H](C)O)NC(=O)[C@H](Cc2ccccc2)NC(=O)[C@H]([C@@H](C)O)NC(=O)[C@H]([C@@H](C)O)NC(=O)[C@H](CCC(=O)O)NC(=O)[C@H](CC(C)C)NC(=O)[C@H](Cc2c[nH]cn2)NC(=O)[C@H]([C@@H](C)O)NC(=O)[C@H](CCC(N)=O)NC(=O)CNC(=O)[C@H]2CCCN2C(=O)[C@H](CCC(N)=O)NC(=O)[C@H]([C@@H](C)O)NC(=O)[C@H](C)NC(=O)[C@H](CCCNC(=N)N)NC1=O` [compound 72] (cyclo(THLETTFTGDGTPKTIRATQ[dP]GQ)), for which the “Relative Ki (Ki mut/Ki WT)” value on PSD-95-PDZ2 [1] was 1.49. For the same compound, the “Normalized SPOT fluorescence (Mut/WT)” value at PSD-95-PDZ2 [2] was 0.09.

In the case of `CC[C@H](C)[C@@H]1NC(=O)[C@H]([C@@H](C)O)NC(=O)[C@H](CCCCN)NC(=O)[C@@H]2CCCN2C(=O)[C@H]([C@@H](C)O)NC(=O)CNC(=O)[C@H](CC(=O)O)NC(=O)CNC(=O)[C@H](C)NC(=O)[C@H](Cc2ccccc2)NC(=O)[C@H]([C@@H](C)O)NC(=O)[C@H]([C@@H](C)O)NC(=O)[C@H](CCC(=O)O)NC(=O)[C@H](CC(C)C)NC(=O)[C@H](Cc2c[nH]cn2)NC(=O)[C@H]([C@@H](C)O)NC(=O)[C@H](CCC(N)=O)NC(=O)CNC(=O)[C@H]2CCCN2C(=O)[C@H](CCC(N)=O)NC(=O)[C@H]([C@@H](C)O)NC(=O)[C@H](C(C)C)NC(=O)[C@H](CCCNC(=N)N)NC1=O` [compound 62] (cyclo(THLETTFAGDGTPKTIRVTQ[dP]GQ)), the “Relative Ki (Ki mut/Ki WT)” value at PSD-95-PDZ2 [1] stood at 1.18. The “Normalized SPOT fluorescence (Mut/WT)” value at PSD-95-PDZ2 [2] came to 0.97.

For the compound `CC[C@H](C)[C@@H]1NC(=O)[C@H]([C@@H](C)O)NC(=O)[C@H](CCCCN)NC(=O)[C@@H]2CCCN2C(=O)[C@H](CS)NC(=O)CNC(=O)[C@H](CC(=O)O)NC(=O)CNC(=O)[C@H]([C@@H](C)O)NC(=O)[C@H](Cc2ccccc2)NC(=O)[C@H]([C@@H](C)O)NC(=O)[C@H]([C@@H](C)O)NC(=O)[C@H](CCC(=O)O)NC(=O)[C@H](CC(C)C)NC(=O)[C@H](Cc2c[nH]cn2)NC(=O)[C@H]([C@@H](C)O)NC(=O)[C@H](CCC(N)=O)NC(=O)CNC(=O)[C@H]2CCCN2C(=O)[C@H](CCC(N)=O)NC(=O)[C@H]([C@@H](C)O)NC(=O)[C@H](C(C)C)NC(=O)[C@H](CCCNC(=N)N)NC1=O` [compound 38] (cyclo(THLETTFTGDGCPKTIRVTQ[dP]GQ)), on PSD-95-PDZ2 [1], the “Relative Ki (Ki mut/Ki WT)” value is recorded as 0.91.

In the case of “Cyclo-(THLETT ? -Me-FTGDGTPKTIRVTQpG(Qα)) (THLETTXTGDGTPKTIRVTQPGQ; cyclic; N-methyl F111; D-proline; cyclized peptide; (7)..(7) X is N-Me-F; (21)..(21) is D-AA) [SEQ ID NO: 90]”, the “effect on interaction with PSD-95-PDZ2 (in words)” value with PSD-95-PDZ2 [1] (FP competition) was “abolished the interaction”.

In the case of “Cyclo-(THLEAlloTTFTGDGTPKTIRVTQpG(Qα)) (THLEXTFTGDGTPKTIRVTQPGQ; cyclic; allo-threonine at 109; D-proline; cyclized peptide; (5)..(5) X is AlloT; (21)..(21) is D-AA) [SEQ ID NO: 80]”, the “effect on interaction with PSD-95-PDZ2 (in words)” value with PSD-95-PDZ2 [1] (FP competition) was “abolish the interaction”.

By Ki is commonly meant the dissociation constant of the complex between target and ligand, obtained from inhibition or displacement. As for `CC[C@H](C)[C@@H]1NC(=O)[C@H]([C@@H](C)O)NC(=O)[C@H](CCCCN)NC(=O)[C@@H]2CCCN2C(=O)[C@H]([C@@H](C)O)NC(=O)[C@@H]2CCCN2C(=O)[C@H](CC(=O)O)NC(=O)CNC(=O)[C@H](Cc2c[nH]c3ccccc23)NC(=O)[C@H](Cc2ccccc2)NC(=O)[C@H]([C@@H](C)O)NC(=O)[C@H]([C@@H](C)O)NC(=O)[C@H](CCC(=O)O)NC(=O)[C@H](CC(C)C)NC(=O)[C@H](Cc2c[nH]cn2)NC(=O)[C@H]([C@@H](C)O)NC(=O)[C@H](CCC(N)=O)NC(=O)CNC(=O)[C@H]2CCCN2C(=O)[C@H](CCC(N)=O)NC(=O)[C@H]([C@@H](C)O)NC(=O)[C@H](C(C)C)NC(=O)[C@H](CCCNC(=N)N)NC1=O` [compound 131] (cyclo(THLETTFWGDPTPKTIRVTQ[dP]GQ)), the inhibition constant Ki at PSD-95-PDZ2 [1] (FP competition) was found to be 950 nM.

With `CC[C@H](C)[C@@H]1NC(=O)[C@H]([C@@H](C)O)NC(=O)[C@H](CCCCN)NC(=O)[C@@H]2CCCN2C(=O)[C@H](CCC(=O)O)NC(=O)CNC(=O)[C@@H](CC(=O)O)NC(=O)CNC(=O)[C@H](Cc2c[nH]c3ccccc23)NC(=O)[C@H](Cc2ccccc2)NC(=O)[C@H]([C@@H](C)O)NC(=O)[C@H]([C@@H](C)O)NC(=O)[C@H](CCC(=O)O)NC(=O)[C@H](CC(C)C)NC(=O)[C@H](Cc2c[nH]cn2)NC(=O)[C@H]([C@@H](C)O)NC(=O)[C@H](CCC(N)=O)NC(=O)CNC(=O)[C@H]2CCCN2C(=O)[C@H](CCC(N)=O)NC(=O)[C@H]([C@@H](C)O)NC(=O)[C@H](C(C)C)NC(=O)[C@H](CCCNC(=N)N)NC1=O` [compound 135] (cyclo(THLETTFWG[dD]GEPKTIRVTQ[dP]GQ)), the inhibition constant (Ki) on PSD-95-PDZ2 [1] (FP competition) was determined as 190 nM.

For the compound `CC[C@H](C)[C@@H]1NC(=O)[C@H]([C@@H](C)O)NC(=O)[C@H](CCCCN)NC(=O)[C@@H]2CCCN2C(=O)[C@H]([C@@H](C)O)NC(=O)CNC(=O)[C@H](CC(=O)O)NC(=O)CNC(=O)[C@H]([C@@H](C)O)NC(=O)[C@H](Cc2ccccc2)NC(=O)[C@H]([C@@H](C)O)NC(=O)[C@H]([C@@H](C)O)NC(=O)[C@H](CCC(=O)O)NC(=O)[C@H](CC(C)C)NC(=O)[C@H](Cc2c[nH]cn2)NC(=O)[C@H]([C@@H](C)O)NC(=O)[C@H](CCC(N)=O)NC(=O)CNC(=O)[C@H]2CCCN2C(=O)[C@H](CCC(N)=O)NC(=O)[C@H]([C@@H](C)O)NC(=O)[C@H](CCCNC(=N)N)NC(=O)[C@H](CCCNC(=N)N)NC1=O` [compound 43] (cyclo(THLETTFTGDGTPKTIRRTQ[dP]GQ)), at PSD-95-PDZ2 [1], the “Relative Ki (Ki mut/Ki WT)” value was 1.13.

“Cyclo-(THLESTFTGDGTPKTIRVTQpG(Qα)) (cyclo(THLESTFTGDGTPKTIRVTQ[dP]GQ); SMILES CC[C@H](C)[C@@H]1NC(=O)[C@H]([C@@H](C)O)NC(=O)[C@H](CCCCN)NC(=O)[C@@H]2CCCN2C(=O)[C@H]([C@@H](C)O)NC(=O)CNC(=O)[C@H](CC(=O)O)NC(=O)CNC(=O)[C@H]([C@@H](C)O)NC(=O)[C@H](Cc2ccccc2)NC(=O)[C@H]([C@@H](C)O)NC(=O)[C@H](CO)NC(=O)[C@H](CCC(=O)O)NC(=O)[C@H](CC(C)C)NC(=O)[C@H](Cc2c[nH]cn2)NC(=O)[C@H]([C@@H](C)O)NC(=O)[C@H](CCC(N)=O)NC(=O)CNC(=O)[C@H]2CCCN2C(=O)[C@H](CCC(N)=O)NC(=O)[C@H]([C@@H](C)O)NC(=O)[C@H](C(C)C)NC(=O)[C@H](CCCNC(=N)N)NC1=O) [SEQ ID NO: 52]”: the “fold lowered (decreased) binding affinity of the cyclic peptide” value with PSD-95-PDZ2 [1] (FP competition, relative to unsubstituted cyclic peptide) came out at 7 fold.
